Laboratory results published in the NIST ThermoML archive (doi:10.1021/acs.jced.8b00438).

Assay: xn = mol fraction of the nth substance listed
Conditions: 100 kPa, Liquid; for mass density: Vibrating tube method; for viscosity: Falling or rolling sphere viscometry

CCCCCCCCCCCC [dodecane] + CCCCO
Conditions | mass density, 313.15 K [kg/m3] | mass density, 318.15 K [kg/m3] | mass density, 323.15 K [kg/m3] | mass density, 328.15 K [kg/m3] | mass density, 333.15 K [kg/m3] | viscosity, 318.15 K [mPa·s] | viscosity, 323.15 K [mPa·s] | viscosity, 328.15 K [mPa·s] | viscosity, 333.15 K [mPa·s]
x1 = 0.1045 | 779.2 | 775.23 | 771.21 | 767.14 | 763.01 | 1.379 | 1.241 | 1.121 | 1.017
x1 = 0.2008 | 768.93 | 764.95 | 760.93 | 756.86 | 752.73 | 1.239 | 1.122 | 1.02 | 0.931
x1 = 0.3002 | 760.78 | 756.81 | 752.8 | 748.75 | 744.64 | 1.138 | 1.038 | 0.949 | 0.871
x1 = 0.3985 | 754.33 | 750.39 | 746.41 | 742.38 | 738.31 | 1.075 | 0.985 | 0.906 | 0.837
x1 = 0.4995 | 748.93 | 745.02 | 741.07 | 737.08 | 733.06 | 1.022 | 0.942 | 0.871 | 0.808
x1 = 0.5978 | 744.69 | 740.81 | 736.9 | 732.96 | 728.98 | 0.997 | 0.923 | 0.856 | 0.797
x1 = 0.7012 | 740.88 | 737.02 | 733.15 | 729.25 | 725.32 | 0.972 | 0.902 | 0.84 | 0.784
x1 = 0.7671 | 739.06 | 735.24 | 731.4 | 727.53 | 723.64 | 0.968 | 0.9 | 0.839 | 0.785
x1 = 0.8773 | 736.32 | 732.55 | 728.77 | 724.96 | 721.13 | 0.964 | 0.899 | 0.839 | 0.785
x1 = 1 | 734.31 | 730.66 | 727 | 723.33 | 719.65 | 1.003 | 0.936 | 0.877 | 0.823
